The target in this assay is Human recombinant LSD1 protein (Homo sapiens (Human), UniProt O60341). Description: LSD1 enzymatic activity, AlphaLISA demethylation assay. The class given is biochemical. Conditions: 4 nM LSD1, 80 nM Biotin-H3K4Me peptide substrate, 1% DMSO, 60 minutes reaction. The method, then: Human recombinant LSD1 protein expressed in E. coli cells was purchased from Active Motif (Carlsbad, Calif.). Biotin-labeled Histone H3K4Me peptide (residues 1-21 with Lys 4 monomethylated) substrate was purchased from Anaspec (Fremont, Calif.). Enzymatic activity was assessed using the AlphaLISA technology from Perkin Elmer Life Sciences (Waltham, Mass.). 2.5 μL of compound solution and 5 μL of LSD1 solutions in the assay buffer (50 mM Tris, pH 9.0, 50 mM NaCl with 0.01% Tween20 and 1 mM DTT added right before the assay) were added into a white low volume 384 well microtiter plate. This mixture solution was incubated for 15 minutes with gentle shaking at room temperature. Demethylation reaction was initiated by adding 2.5 μL of Biotin-H3K4Me peptide substrate solution in the assay buffer. Final concentrations of LSD1, Biotin-H3K4Me peptide substrate, and DMSO were 4 nM, 80 nM, and 1%, respectively. The reaction was allowed to proceed for 60 minutes in dark with gentle shaking at room temperature, after which 5 μL of Anti-H3K4 AlphaLISA acceptor beads in detection buffer from the manufacturer was added into the reaction mixture followed by incubation for 60 minutes. 10 μL of Streptavidin labeled AlphaLISA donor beads in detection buffer was added into the mixture followed by 30-minute incubation. Final acceptor and donor beads concentrations were both at 10 μg/mL. Plates were read on a BMG CLARIOStar multimode plate reader from BMG Labtech (Ortenberg, Germany) with an excitation wavelength of 680 nm and emission wavelength of 615 nm. IC50 values of inhibitors were obtained by fitting the fluorescence intensity vs inhibitor concentrations in a sigmoidal dose-response curve (variable slope) with a non-linear regression using Prism 7 (La Jolla, Calif.).

Drawing on patent US11944614B2, “Imidazo[4,5-c]pyridine compounds as LSD-1 inhibitors” (THE REGENTS OF THE UNIVERSITY OF MICHIGAN, priority 2018, dated 2024), this text covers IC50 for six compounds.

As to `CN1CC[C@H](Cn2cnc3c(-c4ccc(C#N)c(F)c4)c(-c4ccc5c(cnn5C)c4)ncc32)C1` [compound 16, (S)-2-fluoro-4-(6-(1-methyl-1H-indazol-5-yl)-3-((1-methylpyrrolidin-3-yl)methyl)-3H-imidazo[4,5-c]pyridin-7-yl)benzonitrile], the IC50 (commonly the concentration that inhibits the measured activity by half) amounted to 28 nM.

As to `CN1CCC(Cn2cnc3c(-c4ccc(C#N)cc4)c(-c4ccc5c(c4)OCCN5C)ncc32)CC1` [compound 10, 4-(6-(4-methyl-3,4-dihydro-2H-benzo[b][1,4]oxazin-7-yl)-3-((1-methylpiperidin-4-yl)methyl)-3H-imidazo[4,5-c]pyridin-7-yl)benzonitrile], the IC50 stood at 53.1 nM.

For the compound `CCn1ncc2cc(-c3ncc4c(ncn4CC4CCN(C)CC4)c3-c3ccc(C#N)cc3)ccc21` [compound 11, 4-(6-(1-ethyl-1H-indazol-5-yl)-3-((1-methylpiperidin-4-yl)methyl)-3H-imidazo[4,5-c]pyridin-7-yl)benzonitrile], the concentration for half-maximal inhibition (IC50) is 116 nM. With `CCn1ncc2cc(-c3ncc4c(ncn4CC4CCN(C)CC4)c3-c3ccc(C#N)c(F)c3)ccc21` [compound 4, 4-(6-(1-ethyl-1H-indazol-5-yl)-3-((1-methylpiperidin-4-yl)methyl)-3H-imidazo[4,5-c]pyridin-7-yl)-2-fluorobenzonitrile] the figure was 372 nM; with `CN1CCC(Cn2cnc3c(-c4ccc(C#N)cc4)c(-c4ccc5c(c4)OCCN5C)ncc32)C1` (stereo not drawn) [compound 33, 4-(6-(4-methyl-3,4-dihydro-2H-benzo[b][1,4]oxazin-7-yl)-3-((1-methylpyrrolidin-3-yl)methyl)-3H-imidazo[4,5-c]pyridin-7-yl)benzonitrile], 29.5 nM; with `Cn1ccc2cc(-c3ncc4c(ncn4C[C@H]4CCNC4)c3-c3ccc(C#N)c(F)c3)cnc21` [compound 27, (S)-2-fluoro-4-(6-(1-methyl-1H-pyrrolo[2,3-b]pyridin-5-yl)-3-(pyrrolidin-3-ylmethyl)-3H-imidazo[4,5-c]pyridin-7-yl)benzonitrile], 53.3 nM.
